For three molecules, EC50 and solubility results are on record in US8722849B2, “Polypeptides” (Novo Nordisk A/S, priority 2011, dated 2014).

Data set [1] has as its target T1, human calcitonin receptor (Homo sapiens, UniProt P30988).
T1 construct: expressed in transfected cells; host or cells: BHK570
T1 sequence (P30988 25-474): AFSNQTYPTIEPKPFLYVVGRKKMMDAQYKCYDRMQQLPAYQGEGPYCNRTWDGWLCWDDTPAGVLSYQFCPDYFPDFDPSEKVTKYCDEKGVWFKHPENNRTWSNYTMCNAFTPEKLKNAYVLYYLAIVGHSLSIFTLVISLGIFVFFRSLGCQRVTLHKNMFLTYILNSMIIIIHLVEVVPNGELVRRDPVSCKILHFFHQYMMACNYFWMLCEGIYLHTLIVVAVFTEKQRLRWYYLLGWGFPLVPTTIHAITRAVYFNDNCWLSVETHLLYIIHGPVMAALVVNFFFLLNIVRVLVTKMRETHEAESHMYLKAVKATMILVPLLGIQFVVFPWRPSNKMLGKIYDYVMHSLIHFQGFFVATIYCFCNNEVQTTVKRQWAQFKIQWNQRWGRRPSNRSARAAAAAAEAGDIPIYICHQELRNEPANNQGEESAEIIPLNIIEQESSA
Description: Assay (II)a functional CRE-luciferase assay, human calcitonin receptor. The format is cell-based. Particulars: Table 7; human calcitonin (CTa) receptor.

Data set [2] can be described thus: Assay (IV) determination of solubility. In kind it is physicochemical. The gist of the method: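 Polypeptide in water (~500 nmol/ml) mixed 1:1 with 100 mM glycylglycine (pH 3.0–5.0) or bistrispropane (pH 6.0–8.0) buffers. Held 18 hours at room temperature, then centrifuged. Polypeptide remaining in solution quantified by HPLC.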
Data set [3] addresses T2, rat amylin 3(a) receptor (rat calcitonin(a) receptor + rat RAMP3) (Rattus norvegicus, UniProt P32214+Q9JJ73).
T2 construct: expressed in transfected cells; host or cells: BHK tk'ts 13
T2 sequence (P32214 25-479 isoform P32214-2 limits assumed): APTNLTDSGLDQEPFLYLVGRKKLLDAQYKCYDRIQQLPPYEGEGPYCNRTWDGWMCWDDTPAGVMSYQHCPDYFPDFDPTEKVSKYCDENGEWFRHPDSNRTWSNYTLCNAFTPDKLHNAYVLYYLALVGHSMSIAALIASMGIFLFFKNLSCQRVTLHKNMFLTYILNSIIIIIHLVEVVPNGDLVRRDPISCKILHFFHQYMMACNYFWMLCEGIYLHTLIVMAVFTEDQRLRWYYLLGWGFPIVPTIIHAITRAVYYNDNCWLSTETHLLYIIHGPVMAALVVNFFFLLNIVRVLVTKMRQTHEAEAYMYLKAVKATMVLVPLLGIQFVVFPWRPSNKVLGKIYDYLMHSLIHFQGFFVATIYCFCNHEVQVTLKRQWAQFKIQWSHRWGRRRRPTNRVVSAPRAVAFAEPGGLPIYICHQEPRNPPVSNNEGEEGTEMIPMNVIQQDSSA
T2 sequence (Q9JJ73 23-147 partner): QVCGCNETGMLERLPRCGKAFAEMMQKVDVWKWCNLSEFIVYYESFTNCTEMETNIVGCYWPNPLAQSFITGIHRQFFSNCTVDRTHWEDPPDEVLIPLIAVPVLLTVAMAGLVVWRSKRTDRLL
The data set is described as follows: Assay (II)b functional cAMP FlashPlate assay, rat amylin receptor. The format is cell-based. Particulars: Table 11. The gist of the method: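 BHK tk'ts 13 cells transiently transfected with rat calcitonin(a) receptor, alone or with rat RAMP3 (amylin 3(a)), were stimulated 24 hours later with sample for 30 min in buffer containing IBMX. cAMP measured by competitive radioactive FlashPlate assay, scintillation read after 3 h detection incubation.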

Data set [4] has as its target T3, human amylin receptor (amylin 3(a) receptor: human calcitonin receptor + RAMP-3) (Homo sapiens, UniProt O60896+P30988).
T3 construct: expressed in transfected cells; host or cells: BHK570
T3 sequence (P30988 25-474): T1 sequence (P30988 25-474)
T3 sequence (O60896 24-148 partner): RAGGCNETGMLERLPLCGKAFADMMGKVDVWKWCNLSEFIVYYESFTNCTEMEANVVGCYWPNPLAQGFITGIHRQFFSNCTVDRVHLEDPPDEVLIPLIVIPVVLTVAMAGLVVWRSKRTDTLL
The data set is described as follows: Assay (II)a functional CRE-luciferase assay, human amylin receptor. In kind it is cell-based. Particulars: Table 2; BHK amylin 3(a)-receptor/CRE-luc cells.

[5] abbreviates: bistrispropane buffer, pH 6, pH 6.0, read-out: Solubility pH 6.0.
The mark [6] stands for this setting: bistrispropane buffer, pH 6.5, pH 6.5, read-out: Solubility pH 6.5.
The mark [7] stands for this setting: bistrispropane buffer, pH 7, pH 7.0, 18 hours at room temperature, Table 3, read-out: Solubility pH 7.0.
The mark [8] stands for this setting: bistrispropane buffer, pH 7, pH 7.0, Table 8, read-out: Solubility pH 7.0.
[9] abbreviates: bistrispropane buffer, pH 7, pH 7.0, read-out: Solubility pH 7.0.
[10] abbreviates: bistrispropane buffer, pH 7.5, pH 7.5, read-out: Solubility pH 7.5.
[11] abbreviates: bistrispropane buffer, pH 8, pH 8.0, read-out: Solubility pH 8.0.
The mark [12] stands for this setting: glycylglycine buffer, pH 3, pH 3.0, read-out: Solubility pH 3.0.
The mark [13] stands for this setting: glycylglycine buffer, pH 4, pH 4.0, 18 hours at room temperature, Table 2, read-out: Solubility pH 4.0.
Where [14] appears, read: glycylglycine buffer, pH 4, pH 4.0, read-out: Solubility pH 4.0.
Setting [15] is: glycylglycine buffer, pH 5, pH 5.0, read-out: Solubility pH 5.0.

In brackets after ≈: the same amount, converted by molar mass. Where two headings read alike, the source gives them in different places. Starred links: 1 amine or outer side, 2 acyl side, 3 side chain; linkers in the order of their positions; H or OH if unused. Positions of bridges follow the written chain, without caps; N, C: chain ends. Residues, ends and D or L forms follow the SMILES beside them. *: point of attachment. C20 diacid = O=C(O)CCCCCCCCCCCCCCCCCCC(=O)*; γGlu = O=C(O)[C@H](CCC(=O)[*:2])N[*:1]

The EC50 is the concentration needed to bring the measured effect to its halfway point. For orientation: solubility means how much of the substance goes into solution per volume.

Take `CC(C)C[C@H](NC(=O)[C@H](CCCNC(=N)N)NC(=O)[C@H](CCC(N)=O)NC(=O)[C@@H](NC(=O)[C@H](C)NC(=O)[C@@H]1CSSC[C@H](NC(=O)[C@H](CCCCN)NC(=O)CC[C@H](NC(=O)CCCCCCCCCCCCCCCCCCC(=O)O)C(=O)O)C(=O)N[C@@H](CC(N)=O)C(=O)N[C@@H]([C@@H](C)O)C(=O)N[C@@H](C)C(=O)N[C@@H]([C@@H](C)O)C(=O)N1)[C@@H](C)O)C(=O)N[C@@H](C)C(=O)N[C@@H](CCC(=O)O)C(=O)N[C@@H](Cc1ccccc1)C(=O)N[C@@H](CC(C)C)C(=O)N[C@@H](CCCNC(=N)N)C(=O)N[C@@H](Cc1c[nH]cn1)C(=O)N[C@@H](CO)C(=O)N[C@@H](CO)C(=O)N[C@@H](CC(N)=O)C(=O)N[C@@H](CC(N)=O)C(=O)N[C@@H](Cc1ccccc1)C(=O)NCC(=O)N[C@@H](C)C(=O)N1CCC[C@H]1C(=O)N[C@@H](CC(C)C)C(=O)N[C@@H](CO)C(=O)N[C@@H](CO)C(=O)N[C@H](C(=O)N[C@@H](CC(N)=O)C(=O)N[C@H](C(=O)NCC(=O)N[C@@H](CO)C(=O)N[C@@H](Cc1c[nH]cn1)C(=O)N[C@H](C(=O)N[C@@H](Cc1ccc(O)cc1)C(N)=O)[C@@H](C)O)C(C)C)[C@@H](C)O` [Example 65, N-alpha-[(S)-4-Carboxy-4-(19-carboxynonadecanoylamino)butyryl]-[Glu14,Arg17,Ala25,Pro26,Ser28,Ser29,His35]-pramlintide] ({C20 diacid-γGlu}-KCNTATCATQRLAEFLRHSSNNFGAPLSSTNVGSHTY-NH2; disulfide 2-7 (inferred); C-terminus assumed): the 50% effective concentration (EC50) stood at 0.342 nM in data set [1], 1.33 nM in data set [3] and 0.217 nM in data set [4]. The solubility at 18 h in data set [2] (setting [5]) is over 200 µM; in data set [2] (setting [6]), over 200 µM; in data set [2] (setting [7]) it was 176 µM (≈ 781 µg/mL); in data set [2] (setting [8]) it was 176 µM (≈ 781 µg/mL); in data set [2] (setting [9]) it was 176 µM (≈ 781 µg/mL); in data set [2] (setting [10]) it was 96 µM (≈ 426 µg/mL). The solubility at 18 h in data set [2] (setting [11]) was 89 µM (≈ 395 µg/mL); in data set [2] (setting [12]) it was over 200 µM; in data set [2] (setting [13]), over 200 µM; in data set [2] (setting [14]), over 200 µM; in data set [2] (setting [15]), over 200 µM.
With `CC[C@H](C)[C@H](NC(=O)[C@@H]1CCCN1C(=O)CNC(=O)[C@H](Cc1ccccc1)NC(=O)[C@H](CC(N)=O)NC(=O)[C@H](CC(N)=O)NC(=O)[C@H](CO)NC(=O)[C@H](CO)NC(=O)[C@H](Cc1c[nH]cn1)NC(=O)[C@H](Cc1c[nH]cn1)NC(=O)[C@H](CC(C)C)NC(=O)[C@H](Cc1ccccc1)NC(=O)[C@H](CCC(=O)O)NC(=O)[C@H](C)NC(=O)[C@H](CC(C)C)NC(=O)[C@H](CCCNC(=N)N)NC(=O)[C@H](CCC(N)=O)NC(=O)[C@@H](NC(=O)[C@H](C)NC(=O)[C@@H]1CSSC[C@H](NC(=O)[C@H](CCCNC(=N)N)NC(=O)CNC(=O)CC[C@H](NC(=O)CCCCCCCCCCCCCCCCCCC(=O)O)C(=O)O)C(=O)N[C@@H](CC(N)=O)C(=O)N[C@@H]([C@@H](C)O)C(=O)N[C@@H](C)C(=O)N[C@@H]([C@@H](C)O)C(=O)N1)[C@@H](C)O)C(=O)N[C@@H](CC(C)C)C(=O)N1CCC[C@H]1C(=O)N1CCC[C@H]1C(=O)N[C@H](C(=O)N[C@@H](CC(N)=O)C(=O)N[C@H](C(=O)NCC(=O)N[C@@H](CO)C(=O)N[C@@H](CC(N)=O)C(=O)N[C@H](C(=O)N1CCC[C@H]1C(N)=O)[C@@H](C)O)C(C)C)[C@@H](C)O` [Example 101, N-alpha-[(S)-4-Carboxy-4-(19-carboxynonadecanoylamino)butyryl]-Gly-[Arg1,Glu14,His17,Pro37]-pramlintide] ({C20 diacid-γGlu}-GRCNTATCATQRLAEFLHHSSNNFGPILPPTNVGSNTP-NH2; disulfide 3-8 (inferred)), the concentration for a half-maximal effect (EC50) in data set [1] amounted to 0.0455 nM; in data set [3], 0.075 nM; in data set [4] it was 0.0515 nM. Further, the solubility at 18 h in data set [2] (setting [5]) is over 200 µM; in data set [2] (setting [6]), over 200 µM; in data set [2] (setting [7]) it was over 200 µM; in data set [2] (setting [8]) it was over 200 µM; in data set [2] (bistrispropane buffer, pH 7, pH 7.0, Table 9, read-out: Solubility pH 7.0) it was over 200 µM; in data set [2] (setting [9]) it was over 200 µM. For the same molecule, the solubility at 18 h in data set [2] (bistrispropane buffer, pH 7.5, pH 7.5, Table 9, read-out: Solubility pH 7.5) was over 200 µM; in data set [2] (setting [10]), over 200 µM; in data set [2] (setting [11]) it was over 200 µM; in data set [2] (setting [12]), over 200 µM; in data set [2] (setting [13]), over 200 µM; in data set [2] (setting [14]) it was over 200 µM. The solubility at 18 h in data set [2] (setting [15]) is over 200 µM.
For `CC[C@H](C)[C@H](NC(=O)[C@@H]1CCCN1C(=O)CNC(=O)[C@H](Cc1ccccc1)NC(=O)[C@H](CC(N)=O)NC(=O)[C@H](CC(N)=O)NC(=O)[C@H](CO)NC(=O)[C@H](CO)NC(=O)[C@H](Cc1c[nH]cn1)NC(=O)[C@H](Cc1c[nH]cn1)NC(=O)[C@H](CC(C)C)NC(=O)[C@H](Cc1ccccc1)NC(=O)[C@H](CCC(=O)O)NC(=O)[C@H](C)NC(=O)[C@H](CC(C)C)NC(=O)[C@H](CCCNC(=N)N)NC(=O)[C@H](CCC(N)=O)NC(=O)[C@@H](NC(=O)[C@H](C)NC(=O)[C@@H]1CSSC[C@H](NC(=O)[C@H](Cc2c[nH]cn2)NC(=O)[C@H](Cc2c[nH]cn2)NC(=O)[C@H](Cc2c[nH]cn2)NC(=O)CC[C@H](NC(=O)CCCCCCCCCCCCCCCCCCC(=O)O)C(=O)O)C(=O)N[C@@H](Cc2c[nH]cn2)C(=O)N[C@@H]([C@@H](C)O)C(=O)N[C@@H](C)C(=O)N[C@@H]([C@@H](C)O)C(=O)N1)[C@@H](C)O)C(=O)N[C@@H](CC(C)C)C(=O)N1CCC[C@H]1C(=O)N1CCC[C@H]1C(=O)N[C@H](C(=O)N[C@@H](CC(N)=O)C(=O)N[C@H](C(=O)NCC(=O)N[C@@H](CO)C(=O)N[C@@H](Cc1c[nH]cn1)C(=O)N[C@H](C(=O)N[C@@H](Cc1ccc(O)cc1)C(N)=O)[C@@H](C)O)C(C)C)[C@@H](C)O` [Example 32, N-alpha-[(S)-4-Carboxy-4-(19-carboxynonadecanoylamino)butyryl]-His-His-[His1,His3,Glu14,His17,His35]-pramlintide] ({C20 diacid-γGlu}-HHHCHTATCATQRLAEFLHHSSNNFGPILPPTNVGSHTY-NH2; disulfide 4-9 (inferred)), the figures for the half-maximal effective concentration (EC50) in data set [1], in data set [3] and in data set [4] were 0.543 nM, 0.401 nM and 0.603 nM, respectively. Also, the solubility at 18 h was over 200 µM in data set [2] (setting [5]); 6 µM (≈ 28.7 µg/mL) in data set [2] (setting [6]); 6 µM (≈ 28.7 µg/mL) in data set [2] (setting [10]); 55 µM (≈ 263 µg/mL) in data set [2] (setting [11]); over 200 µM in data set [2] (setting [12]); over 200 µM in data set [2] (setting [13]). Moreover, the solubility at 18 h in data set [2] (setting [14]) and in data set [2] (setting [15]) was over 200 µM each time.
